ChEMBL document CHEMBL3407451, “Novel approach to bis(indolyl)methanes: de novo synthesis of 1-hydroxyiminomethyl derivatives with anti-cancer properties” (Eur J Med Chem, 2015)

Assays:
HepG2 [1] = assay: Selectivity index, ratio of IC50 for human HepG2 cells to IC50 for mouse N9 cells; format: functional
N9 [2] = assay: Selectivity index, ratio of IC50 for human MDA-MB-468 cells to IC50 for mouse N9 cells; format: functional
N9 [3] = assay: Selectivity index, ratio of IC50 for mouse RAW264.7 cells to IC50 for mouse N9 cells; format: functional
N9 [4] = assay: Selectivity index, ratio of IC50 for human THP1 cells to IC50 for mouse N9 cells; format: functional
EL4 [5] = assay: Selectivity index, ratio of IC50 for mouse EL4 cells to IC50 for mouse N9 cells; format: functional
N9 [6] = assay: Selectivity index, ratio of IC50 for human U937 cells to IC50 for mouse N9 cells; format: functional
HepG2 [7] = assay: Cytotoxicity against human HepG2 cells assessed as reduction in cell viability after 72 hrs by MTT colorimetric assay; format: functional, cell-based; details: HepG2, 72 h
MDA-MB-468 = assay: Cytotoxicity against human MDA-MB-468 cells assessed as reduction in cell viability after 72 hrs by MTT colorimetric assay; format: functional, cell-based; details: MDA-MB-468, 72 h
RAW264.7 = assay: Cytotoxicity against mouse RAW264.7 cells assessed as reduction in cell viability after 72 hrs by MTT colorimetric assay; format: functional, cell-based; details: RAW264.7, 72 h
THP-1 [8] = assay: Cytotoxicity against human THP1 cells assessed as reduction in cell viability after 72 hrs by MTT colorimetric assay; format: functional, cell-based; details: THP-1, 72 h
EL4 [9] = assay: Cytotoxicity against mouse EL4 cells assessed as reduction in cell viability after 72 hrs by MTT colorimetric assay; format: functional, cell-based; details: EL4, 72 h
[10] = Cytotoxicity against human U937 cells assessed as reduction in cell viability after 72 hrs by MTT colorimetric assay; format: functional, cell-based; details: U-937, 72 h
[11] = Cytotoxicity against mouse S17 cells assessed as reduction in cell viability after 72 hrs by MTT colorimetric assay; format: cell-based; details: S17, 72 h
HepG2 [12] = assay: Selectivity index, ratio of IC50 for human HepG2 cells to IC50 for mouse S17 cells; format: functional
[13] = Selectivity index, ratio of IC50 for human MDA-MB-468 cells to IC50 for mouse S17 cells; format: functional
THP-1 [14] = assay: Selectivity index, ratio of IC50 for human THP1 cells to IC50 for mouse S17 cells; format: functional

Row | Structure (SMILES) | Ratio IC50 (HepG2 [1]) | Ratio IC50 (N9 [2]) | Ratio IC50 (N9 [3]) | Ratio IC50 (N9 [4]) | Ratio IC50 (EL4 [5]) | Ratio IC50 (N9 [6]) | IC50 (HepG2 [7]) [µM] | IC50 (MDA-MB-468) [µM] | IC50 (RAW264.7) [µM] | IC50 (THP-1 [8]) [µM] | IC50 (EL4 [9]) [µM] | IC50 [10] [µM] | IC50 [11] [µM] | Ratio IC50 (HepG2 [12]) | Ratio IC50 [13] | Ratio IC50 (THP-1 [14])
1 | O/N=C(/c1ccc(Br)cc1)C(c1c[nH]c2ccccc12)c1c[nH]c2ccccc12 | 1.38 | 1.04 | 0.96 | 14.2 | 13.94 | 14.02 | 16.6 | 22.1 | 23.9 | 1.62 | 1.65 | 1.64 | 16.3 | 0.98 | 0.73 | 10.04
2 | Cn1cc(C(/C(=N\O)c2ccc(Br)cc2)c2cn(C)c3ccccc23)c2ccccc21 | 0.56 | 0.31 | 0.47 | 0.16 | 0.19 | 0.2 | 35.7 | 63.7 | 42.2 | 124 | 106 | 97 | 51.4 | 1.44 | 0.81 | 0.41
3 | O/N=C(/c1ccccc1)C(c1c[nH]c2ccccc12)c1c[nH]c2ccccc12 | 1.05 | 2.72 | 2.4 | 1.61 | 2.45 | 0.86 | 28 | 10.7 | 12.2 | 18.1 | 11.9 | 34.1 | 26.3 | 0.94 | 2.45 | 
4 | O/N=C(/c1ccc(F)cc1)C(c1c[nH]c2ccccc12)c1c[nH]c2ccccc12 |  |  |  |  |  |  |  |  |  | 23 | 16.9 | 28 | 24.9 |  |  | 0.89
5 | C/C(=N\O)C(c1c[nH]c2ccccc12)c1c[nH]c2ccccc12 |  |  |  |  |  |  |  |  |  | 30.7 | 23.9 | 42.5 | 26.1 |  |  | 0.62
6 | C/C(=N/O)C(c1c[nH]c2ccccc12)c1c[nH]c2ccccc12 |  |  |  |  |  |  |  |  |  | 57.6 | 39 | 59.3 | 35.8 |  |  | 0.6
7 | COc1cc([C@@H]2c3cc4c(cc3[C@@H](O[C@@H]3O[C@@H]5CO[C@@H](C)O[C@H]5[C@H](O)[C@H]3O)[C@H]3COC(=O)[C@H]23)OCO4)cc(OC)c1O [ETOPOSIDE] | 1.71 | 0.88 |  |  | 0.8 |  | 1.4 | 6.69 | 0.82 | 1.82 | 4.9 | 1.1 | 10.4 | 8.97 |  | 8.55
